The test system of one data set is RKO. Description: Cell viability assay (MTT), RKO. It is filed as cell-based. The following applies: read-out: RKO EC50 (72 h), RKO cells. The method, then: Row H of the plate contained the controls. Wells H1-H3 received 20 μL of assay media.
Further dilutions were used for potent peptides.
80 µL of assay media was removed from each well. […] Cell viability was analyzed against the DMSO controls.

The next data set has as its target T1, MDMX (Homo sapiens, UniProt O15151).
T1 sequence (O15151 1-125): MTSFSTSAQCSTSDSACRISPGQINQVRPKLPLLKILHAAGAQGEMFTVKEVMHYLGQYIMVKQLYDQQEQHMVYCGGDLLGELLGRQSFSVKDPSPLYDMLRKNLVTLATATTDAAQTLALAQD
Description: Competitive fluorescence polarization assay for MDMX. It counts as binding. A general note: In fluorescence polarisation assays a small probe gives low polarisation when free and higher when bound to something large.

For another data set, the target named is MDM2 (Homo sapiens, UniProt Q00987). Put plainly: Competitive fluorescence polarization assay for MDM2. It counts as binding.
Chain of MDM2 (Q00987 1-125): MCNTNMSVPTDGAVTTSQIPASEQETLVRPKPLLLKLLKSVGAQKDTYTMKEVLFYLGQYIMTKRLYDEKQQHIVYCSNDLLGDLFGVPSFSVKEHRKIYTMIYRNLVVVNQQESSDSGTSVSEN
For the next data set, the system named is gut tissue. Put plainly: Topotecan-induced mucositis (gut histopathology). It counts as in vivo, C57BL/6 mice. The following applies: Group 3: […] topotecan days 2-6, 10 mice. The protocol: The effect of a peptidomimetic macrocycle of the disclosure on topotecan-induced mucositis is assessed in a controlled, in vivo study. Four groups of mice (10 mice per group) are involved in the study, and administration of agents occurs over a 6-day treatment period. The first group of mice (Group 1) is treated with a vehicle control on days 2, 3, 4, 5, and 6 of the treatment period. The second group of mice (Group 2) is treated intravenously with 2.4 mg/kg of a peptidomimetic macrocycle on days 1, 2, 3, 4, and 5 of a 6-day treatment period. The third group of mice (Group 3) is treated with 1.5 mg/kg of topotecan on days 2, 3, 4, 5, and 6 of the 6-day treatment period. The fourth group of mice (Group 4) is treated with 2.4 mg/kg of the peptidomimetic macrocycle on days 1, 2, 3, 4, and 5 of the 6-day treatment period and 1.5 mg/kg of topotecan on days 2, 3, 4, 5, and 6 of the 6-day treatment period. Gut samples are then taken from mice on days 7 and 9 post treatment. Histopathology analysis of gut samples is performed to assess hypertrophy/hyperplasia. In some embodiments, all gut samples from mice in Groups 1 and 2 receive a hypertrophy/hyperplasia score of 0. […]
C57BL/6 mice (n=10 per group) were divided into four treatment groups. […] Images and gut tissues and quantification of pathology scores can be seen in FIG. 24A.

The test system of another data set is MC38 colon cancer tumors. Put plainly: Anti-tumor activity of topotecan with AP-1, MC38 model. It counts as in vivo, C57BL/6 mice. The following applies: MC38, topotecan days 1-5, FIG. 17A. The protocol:
(§1) C57BL/6 mice bearing established syngeneic MC38 colon cancer tumors, or nu/nu mice bearing established H69 or H211 xenograft tumors were treated with topotecan on days 1-5 and either AP-1 or vehicle on days 0-4. Median tumor volume and mouse survival was assessed.

The test system of another data set is H211 xenograft tumors. Description: Anti-tumor activity of topotecan with AP-1, H211 model. It is filed as in vivo, nu/nu mice. The following applies: H211, topotecan days 1-5, FIG. 17C. The protocol: as §1
For another data set, the system named is H69 xenograft tumors. Put plainly: Anti-tumor activity of topotecan with AP-1, H69 model. It is filed as in vivo, nu/nu mice. Particulars: H69, topotecan days 1-5, FIG. 17B. The protocol:
as §1

For orientation: EC50 means the concentration at which the effect is half-maximal. In general, IC50 refers to the concentration that gives 50% inhibition. Broadly, the Ki is a measure of affinity in units of concentration, obtained from inhibition or displacement.

Structures are written as SMILES.

Description for MDM2: 1 mM of FAM-labeled linear peptide (in 100% DMSO) was diluted to 100 μM with DMSO (dilution 1:10). Then, diluted solution was further diluted from 100 μM to 10 μM with water (dilution 1:10), and diluted again with FP buffer from 10 μM to 40 nM (dilution 1:250). […] The diluted FAM-labeled peptides were kept in the dark until use.
Unlabeled peptide dose plates were prepared with FP buffer starting with 1 μM (final) of the peptide. […] 10 mM of the solution (in 100% DMSO) with DMSO to 5 mM (dilution 1:2); dilution from 5 mM to 500 μM with H2O (dilution 1:10); and dilution with FP buffer from 500 μM to 20 μM (dilution 1:25). […] 10 μl of 10 nM (4×) of FAM-labeled peptide was added into each well, and the wells were incubated for 3 h before being read.
Description for MDMX: MDMX (40 kD) was diluted into FP buffer (high-salt buffer 200 mM NaCl, 5 mM CHAPS, pH 7.5) to make a 300 nM (2×) working stock solution. 20 μl of the 300 nM (2×) of protein stock solution was added into each well of 96-well black microplate. 1 mM (in 100% DMSO) of a FAM-labeled linear peptide was diluted with DMSO to a concentration of 100 μM (dilution 1:10). The solution was diluted from 100 μM to 10 μM with water (dilution 1:10), and diluted further with FP buffer from 10 μM to 40 nM (dilution 1:250). […] The diluted FAM-labeled peptide was kept in the dark until use. An unlabeled peptide dose plate was prepared with FP buffer starting with a concentration of 5 μM (final) of a peptide. […] 10 mM (in 100% DMSO) of the solution was diluted with DMSO to prepare a 5 mM (dilution 1:2) solution. The solution was diluted from 5 mM to 500 μM with H2O (dilution 1:10), and diluted further with FP buffer from 500 μM to 20 μM (dilution 1:25). […] 10 μl of the serially diluted unlabeled peptides were added to each well, which was filled with 20 μl of the 300 nM protein solution. 10 μl of the 10 nM (4×) FAM-labeled peptide solution was added into each well, and the wells were incubated for 3 h before reading.

With `CC(=O)N[C@@H](CC(C)C)C(=O)N[C@H](C(=O)N[C@@H](Cc1ccccc1)C(=O)N[C@]1(C)CCCCCCC=CCCC[C@@](C)(C(=O)N[C@@H](CO)C(=O)N[C@@H](C)C(=O)N[C@@H](C)C(N)=O)NC(=O)[C@H](CC2CCCCC2)NC(=O)[C@H](CCC(N)=O)NC(=O)[C@H](C)NC(=O)[C@H](Cc2c[nH]c3ccccc23)NC(=O)[C@H](Cc2ccc(O)cc2)NC(=O)[C@H](CCC(=O)O)NC1=O)[C@@H](C)O` (single isomer, unassigned) [compound 148], the concentration giving a half-maximal response (EC50) in the data set with RKO is 1000 to 30000 nM.
As to `CC(=O)N[C@@H](CC(C)C)C(=O)N[C@H](C(=O)N[C@@H](Cc1ccccc1)C(=O)N[C@]1(C)CCCCCCC=CCCC[C@@](C)(C(=O)N[C@@H](CO)C(=O)N[C@@H](C)C(=O)N[C@@H](C)C(N)=O)NC(=O)[C@H](C2CCCC2)NC(=O)[C@H](CCC(N)=O)NC(=O)[C@H](C)NC(=O)[C@H](Cc2c[nH]c3ccccc23)NC(=O)[C@H](Cc2ccc(O)cc2)NC(=O)[C@H](CCC(=O)O)NC1=O)[C@@H](C)O` (single isomer, unassigned) [compound 150], in the data set with RKO, the EC50 fell in the range of 1000 to 30000 nM.
Consider `CC(=O)N[C@@H](CC(C)C)C(=O)N[C@H](C(=O)N[C@@H](C)C(=O)N[C@]1(C)CCCCCCC=CCCC[C@@](C)(C(=O)N[C@@H](CO)C(=O)N[C@@H](C)C(=O)N[C@@H](C)C(N)=O)NC(=O)[C@H](CC2CCC2)NC(=O)[C@H](CCC(N)=O)NC(=O)[C@H](C)NC(=O)[C@H](Cc2c[nH]c3ccccc23)NC(=O)[C@H](Cc2ccc(O)cc2)NC(=O)[C@H](CCC(=O)O)NC1=O)[C@@H](C)O` (single isomer, unassigned) [compound 252], for which the results for the IC50 on MDMX and on MDM2 were more than 1000 nM and 100 to 1000 nM, respectively. For the same molecule, the inhibition constant Ki was more than 1000 nM at MDMX and 100 to 1000 nM at MDM2.
For the molecule `CC(=O)N[C@@H](CCC(=O)O)C(=O)N[C@H](C(=O)N[C@@H](Cc1ccccc1)C(=O)N[C@]1(C)CCCCCCC=CCCC[C@@](C)(C(=O)N[C@@H](C)C(=O)N[C@@H](C)C(=O)N[C@@H](C)C(=O)N[C@@H](C)C(=O)N[C@@H](C)C(=O)N[C@H](C)C(N)=O)NC(=O)[C@H](CC(C)C)NC(=O)[C@H](CCC(N)=O)NC(=O)[C@H](C)NC(=O)[C@H](Cc2c[nH]c3ccccc23)NC(=O)[C@H](Cc2ccc(O)cc2)NC(=O)[C@H](CCC(=O)O)NC1=O)[C@@H](C)O` (single isomer, unassigned) [compound 341], the EC50 in the data set on RKO was in the range of 1000 to 30000 nM.
The same measure, in the same setting: with `CC(=O)N[C@@H](CC(C)C)C(=O)N[C@H](C(=O)N[C@@H](Cc1ccccc1)C(=O)N[C@]1(C)CCCCCCC=CCCC[C@@](C)(C(=O)N[C@@H](CO)C(=O)N[C@@H](C)C(=O)N[C@@H](C)C(=O)N[C@H](C)C(N)=O)NC(=O)[C@H](CC2CCC2)NC(=O)[C@H](CCC(N)=O)NC(=O)[C@H](C)NC(=O)[C@H](Cc2c[nH]c3ccccc23)NC(=O)[C@H](Cc2ccc(O)cc2)NC(=O)[C@H](CCC(=O)O)NC1=O)[C@@H](C)O` (single isomer, unassigned) [compound 353] the figure was 1000 to 30000 nM.
Same read-out and setting: with `CC(=O)N[C@@H](C)C(=O)N[C@@H](CC(C)C)C(=O)N[C@H](C(=O)N[C@@H](Cc1ccccc1)C(=O)N[C@]1(C)CCCCCCC=CCCC[C@@](C)(C(=O)N[C@@H](CO)C(=O)N[C@@H](C)C(=O)N[C@@H](C)C(=O)N[C@H](C)C(N)=O)NC(=O)[C@H](CC2CCC2)NC(=O)[C@H](CCC(N)=O)NC(=O)[C@H](C)NC(=O)[C@H](Cc2c[nH]c3ccccc23)NC(=O)[C@H](Cc2ccc(O)cc2)NC(=O)[C@H](CCC(=O)O)NC1=O)[C@@H](C)O` (single isomer, unassigned) [compound 355] the figure was 1000 to 30000 nM; with `CC(=O)N[C@@H](C)C(=O)N[C@@H](C)C(=O)N[C@@H](CC(C)C)C(=O)N[C@H](C(=O)N[C@@H](Cc1ccccc1)C(=O)N[C@]1(C)CCCCCCC=CCCC[C@@](C)(C(=O)N[C@@H](CO)C(=O)N[C@@H](C)C(=O)N[C@@H](C)C(=O)N[C@@H](C)C(=O)N[C@H](C)C(N)=O)NC(=O)[C@H](CC2CCC2)NC(=O)[C@H](CCC(N)=O)NC(=O)[C@H](C)NC(=O)[C@H](Cc2c[nH]c3ccccc23)NC(=O)[C@H](Cc2ccc(O)cc2)NC(=O)[C@H](CCC(=O)O)NC1=O)[C@@H](C)O` (single isomer, unassigned) [compound 358], 1000 to 30000 nM; with `CC(=O)N[C@@H](C)C(=O)N[C@@H](C)C(=O)N[C@@H](CC(C)C)C(=O)N[C@H](C(=O)N[C@@H](Cc1ccccc1)C(=O)N[C@]1(C)CCCCCCC=CCCC[C@@](C)(C(=O)N[C@@H](CO)C(=O)N[C@@H](C)C(=O)N[C@@H](C)C(=O)N[C@@H](C)C(=O)N[C@H](C)C(N)=O)NC(=O)[C@H](CC2CCC2)NC(=O)[C@H](CCC(N)=O)NC(=O)[C@H](C)NC(=O)[C@H](Cc2c[nH]c3ccccc23)NC(=O)[C@H](Cc2ccc(O)cc2)NC(=O)[C@H](CCC(=O)O)NC1=O)[C@@H](C)O` (single isomer, unassigned) [compound 359], 1000 to 30000 nM.
Still for that read-out and setting: with `CC[C@H](C)[C@H](NC(=O)[C@H](C)NC(=O)[C@H](C)NC(=O)[C@]1(C)CCCC=CCCCCCC[C@@](C)(NC(=O)[C@H](Cc2ccccc2)NC(=O)[C@@H](NC(=O)[C@H](CC(C)C)NC(=O)CN(C)C)[C@@H](C)O)C(=O)N[C@@H](CCC(=O)O)C(=O)N[C@@H](Cc2ccc(C(=O)O)cc2)C(=O)N[C@@H](Cc2c[nH]c3ccccc23)C(=O)N[C@@H](C)C(=O)N[C@@H](CCC(N)=O)C(=O)N[C@@H](CC2CCC2)C(=O)N1)C(=O)N[C@H](C)C(N)=O` (single isomer, unassigned) [compound 440] the figure was 1000 to 30000 nM; with `CCCC[C@H](NC(=O)[C@H](C)NC(=O)[C@H](C)NC(=O)[C@]1(C)CCC/C=C/CCCCCC[C@@](C)(NC(=O)[C@H](Cc2ccccc2)NC(=O)[C@@H](NC(=O)[C@H](CC(C)C)NC(C)=O)[C@@H](C)O)C(=O)N[C@@H](C)C(=O)N[C@@H](Cc2ccc(O)cc2)C(=O)N[C@@](C)(Cc2c[nH]c3ccccc23)C(=O)N[C@@H](C)C(=O)N[C@@H](CCC(N)=O)C(=O)N[C@@H](CC(C)C)C(=O)N1)C(=O)N[C@@H](C)C(N)=O` [compound 388], 1000 to 30000 nM; with `CC(C)C[C@H](NC(=O)CN(C)C)C(=O)N[C@H](C(=O)N[C@@H](Cc1ccccc1)C(=O)N[C@]1(C)CCCCCCC=CCCC[C@@](C)(C(=O)N[C@@H](CO)C(=O)N[C@@H](C)C(=O)N[C@@H](C)C(N)=O)NC(=O)[C@H](CC2CCC2)NC(=O)[C@H](CCC(N)=O)NC(=O)[C@H](C)NC(=O)[C@H](Cc2c[nH]c3ccccc23)NC(=O)[C@H](Cc2ccc(O)cc2)NC(=O)[C@H](CCC(=O)O)NC1=O)[C@@H](C)O` [compound 435], 1000 to 30000 nM.
As to `CC[C@@]1(O)C(=O)OCc2c1cc1n(c2=O)Cc2cc3c(CN(C)C)c(O)ccc3nc2-1` [topotecan], in the data set with gut tissue, the “mice with hyperplasia/hypertrophy score of 3” value is listed as “about 70%” and the “mice with hypertrophy/hyperplasia score of 2” value is recorded as “about 30%”. In addition, in the data set on MC38 colon cancer tumors, the survival result is given as “increased” and the tumor volumes entry is recorded as “decreased”. Also, in the data set with H211 xenograft tumors, the survival result is recorded as “increased” and the tumor volumes entry is “decreased”. In addition, in the data set with H69 xenograft tumors, the survival entry was “increased” and the tumor volumes entry is listed as “decreased”.
